Source: patent US20130303509A1, “NAMPT INHIBITORS” (AbbVie Inc., priority 2012, published 2013)

system: PC3 cells; assay: NAMPT Cell Proliferation Assay; type: cell-based; conditions: Homo sapiens, PC-3, 120 h, 5 days incubation, cell viability by Cell Titer Glo
In short: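 Five-day CellTiter-Glo viability readout in PC3 cells grown in RPMI/10% heat-inactivated FBS. Compounds added after overnight attachment as a 10-fold dilution series, […]. Percent inhibition fitted to sigmoidal dose-response to derive IC50.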

Row | Compound | IC50
1 | CC[C@H](C)C(=O)N1CCC(Oc2ccc(NC(=O)C3CN(c4cccnc4)C3)cc2)CC1 [Example 32, N-[4-({1-[(2S)-2-methylbutanoyl]piperidin-4-yl}oxy)phenyl]-1-(pyridin-3-yl)azetidine-3-carboxamide] | 6.54 nM
2 | O=C(Nc1ccc(C2CCN(C(=O)c3cccs3)CC2)cc1)C1CN(c2ccnnc2)C1 [Example 549, 1-(pyridazin-4-yl)-N-{4-[1-(thiophen-2-ylcarbonyl)piperidin-4-yl]phenyl}azetidine-3-carboxamide] | 0.67 nM
3 | Cc1ncccc1N1CC(C(=O)Nc2ccc(C3CCN(C(=O)CC4CCCCC4)CC3)cc2)C1 [Example 179, N-{4-[1-(cyclohexylacetyl)piperidin-4-yl]phenyl}-1-(2-methylpyridin-3-yl)azetidine-3-carboxamide] | 192 nM
4 | CC(C)(C)C(=O)N1CC[C@@H](Oc2ccc(NC(=O)[C@H]3CCN(c4cccnn4)C3)cc2)C1 [Example 780, (3S)-N-(4-{[(3R)-1-(2,2-dimethylpropanoyl)pyrrolidin-3-yl]oxy}phenyl)-1-(pyridazin-3-yl)pyrrolidine-3-carboxamide] | 4.07 nM
5 | O=C(Nc1ccc(C2CCN(C(=O)c3ccco3)CC2)cc1)[C@H]1CCN(c2cccnn2)C1 [Example 649, (3S)-N-{4-[1-(furan-2-ylcarbonyl)piperidin-4-yl]phenyl}-1-(pyridazin-3-yl)pyrrolidine-3-carboxamide] | 1.11 nM
6 | CC(C)(C(=O)N1CCC(Oc2ccc(NC(=O)C3CN(c4ccnnc4)C3)cc2)CC1)c1ccccc1 [Example 281, N-(4-{[1-(2-methyl-2-phenylpropanoyl)piperidin-4-yl]oxy}phenyl)-1-(pyridazin-4-yl)azetidine-3-carboxamide] | 16.9 nM
7 | CCC(C)(C)C(=O)N1CCC(Oc2ccc(NC(=O)C3CN(c4cccnc4)C3)cc2)CC1 [Example 40, N-(4-{[1-(2,2-dimethylbutanoyl)piperidin-4-yl]oxy}phenyl)-1-(pyridin-3-yl)azetidine-3-carboxamide] | 2.17 nM
8 | O=C(Nc1ccc(O[C@@H]2CCN(C(=O)Cc3ccc(F)cc3)C2)cc1)C1CN(c2ccnnc2)C1 [Example 449, N-[4-({(3R)-1-[(4-fluorophenyl)acetyl]pyrrolidin-3-yl}oxy)phenyl]-1-(pyridazin-4-yl)azetidine-3-carboxamide] | 678 nM
9 | C#CCCC(=O)N1CCC(c2ccc(NC(=O)C3CN(c4cccnn4)C3)cc2)CC1 [Example 338, N-{4-[1-(pent-4-ynoyl)piperidin-4-yl]phenyl}-1-(pyridazin-3-yl)azetidine-3-carboxamide] | 1.11 nM
10 | Cc1ncccc1N1CC(C(=O)Nc2ccc(C3CCN(C(=O)c4ccoc4)CC3)cc2)C1 [Example 165, N-{4-[1-(furan-3-ylcarbonyl)piperidin-4-yl]phenyl}-1-(2-methylpyridin-3-yl)azetidine-3-carboxamide] | 68.2 nM
11 | O=C(Nc1ccc(OC2CCN(C(=O)C3CCCC3)CC2)cc1)C1CN(c2cccnc2)C1 [Example 52, N-(4-{[1-(cyclopentylcarbonyl)piperidin-4-yl]oxy}phenyl)-1-(pyridin-3-yl)azetidine-3-carboxamide] | 6.28 nM
12 | CC[C@H](C)C(=O)N1CCC(Oc2ccc(C(=O)NC3CN(c4cccnc4)C3)cc2)CC1 [Example 23, 4-({1-[(2S)-2-methylbutanoyl]piperidin-4-yl}oxy)-N-[1-(pyridin-3-yl)azetidin-3-yl]benzamide] | 72.5 nM
13 | CC1CC1C(=O)N1CCC(c2ccc(NC(=O)C3CN(c4cccnc4)C3)cc2)CC1 (stereo not shown) [Example 102, N-(4-{1-[(2-methylcyclopropyl)carbonyl]piperidin-4-yl}phenyl)-1-(pyridin-3-yl)azetidine-3-carboxamide] | 0.59 nM
14 | O=C(Nc1ccc(C2CCN(C(=O)Cc3ccc(Cl)cc3)CC2)cc1)[C@H]1CCN(c2cccnn2)C1 [Example 686, (3S)-N-(4-{1-[(4-chlorophenyl)acetyl]piperidin-4-yl}phenyl)-1-(pyridazin-3-yl)pyrrolidine-3-carboxamide] | 64.9 nM
15 | O=C(Nc1ccc(O[C@@H]2CCN(C(=O)Cc3cccc(F)c3)C2)cc1)C1CN(c2cccnn2)C1 [Example 494, N-[4-({(3R)-1-[(3-fluorophenyl)acetyl]pyrrolidin-3-yl}oxy)phenyl]-1-(pyridazin-3-yl)azetidine-3-carboxamide] | 1.05 nM
16 | O=C(Nc1ccc(C2CCN(C(=O)c3cccc(F)c3)CC2)cc1)[C@H]1CCN(c2cccnn2)C1 [Example 725, (3S)-N-{4-[1-(3-fluorobenzoyl)piperidin-4-yl]phenyl}-1-(pyridazin-3-yl)pyrrolidine-3-carboxamide] | 4.01 nM
17 | O=C(Nc1ccc(S(=O)(=O)C2CCN(C(=O)Cc3ccccc3F)CC2)cc1)C1CN(c2cccnn2)C1 [Example 613, N-[4-({1-[(2-fluorophenyl)acetyl]piperidin-4-yl}sulfonyl)phenyl]-1-(pyridazin-3-yl)azetidine-3-carboxamide] | 707 nM

Row | Compound | IC50
18 | O=C(Nc1ccc(OC2CCN(C(=O)c3ccc(F)c(F)c3)CC2)cc1)C1CN(c2cccnn2)C1 [Example 234, N-(4-{[1-(3,4-difluorobenzoyl)piperidin-4-yl]oxy}phenyl)-1-(pyridazin-3-yl)azetidine-3-carboxamide] | 10.5 nM
19 | O=C(Nc1ccc(C2CCN(C(=O)CCC(F)(F)F)CC2)cc1F)C1CN(c2ccnnc2)C1 [Example 872, N-{2-fluoro-4-[1-(4,4,4-trifluorobutanoyl)piperidin-4-yl]phenyl}-1-(pyridazin-4-yl)azetidine-3-carboxamide] | 23.6 nM
20 | O=C(Nc1ccc(OC2CCN(C(=O)C3CCOCC3)CC2)cc1)C1CN(c2cccnn2)C1 [Example 214, 1-(pyridazin-3-yl)-N-(4-{[1-(tetrahydro-2H-pyran-4-ylcarbonyl)piperidin-4-yl]oxy}phenyl)azetidine-3-carboxamide] | 9.09 nM
21 | COCC(=O)N1CC[C@@H](Oc2ccc(NC(=O)C3CN(c4ccnnc4)C3)cc2)C1 [Example 468, N-(4-{[(3R)-1-(methoxyacetyl)pyrrolidin-3-yl]oxy}phenyl)-1-(pyridazin-4-yl)azetidine-3-carboxamide] | 730 nM
22 | O=C(Nc1ccc(S(=O)(=O)C2CCN(C(=O)CCC(F)(F)F)CC2)cc1)C1CN(c2cccnn2)C1 [Example 575, 1-(pyridazin-3-yl)-N-(4-{[1-(4,4,4-trifluorobutanoyl)piperidin-4-yl]sulfonyl}phenyl)azetidine-3-carboxamide] | 269 nM
23 | O=C(Nc1ccc(OC2CCN(C(=O)CC3CCOCC3)CC2)cc1)C1CN(c2cccnc2C(F)(F)F)C1 [Example 3, N-(4-{[1-(tetrahydro-2H-pyran-4-ylacetyl)piperidin-4-yl]oxy}phenyl)-1-[2-(trifluoromethyl)pyridin-3-yl]azetidine-3-carboxamide] | 7330 nM
24 | Cc1cccc(C(=O)N2CCC(c3ccc(NC(=O)C4CN(c5cccnn5)C4)cc3)CC2)c1 [Example 341, N-{4-[1-(3-methylbenzoyl)piperidin-4-yl]phenyl}-1-(pyridazin-3-yl)azetidine-3-carboxamide] | 1.98 nM
25 | O=C(Nc1ccc(O[C@@H]2CCN(C(=O)c3ccc(C(F)(F)F)cc3)C2)cc1)C1CN(c2cccnn2)C1 [Example 517, 1-(pyridazin-3-yl)-N-[4-({(3R)-1-[4-(trifluoromethyl)benzoyl]pyrrolidin-3-yl}oxy)phenyl]azetidine-3-carboxamide] | 9.21 nM
26 | CCCCCC(=O)N1CCC(c2ccc(NC(=O)[C@H]3CCN(c4cccnn4)C3)cc2)CC1 [Example 678, (3S)-N-[4-(1-hexanoylpiperidin-4-yl)phenyl]-1-(pyridazin-3-yl)pyrrolidine-3-carboxamide] | 6.09 nM
27 | O=C(N[C@H]1CCN(c2cccnn2)C1)c1ccc(C2CCN(C(=O)c3ccc(F)cc3)CC2)s1 [Example 755, 5-[1-(4-fluorobenzoyl)piperidin-4-yl]-N-[(3S)-1-(pyridazin-3-yl)pyrrolidin-3-yl]thiophene-2-carboxamide] | 190 nM
28 | O=C(Nc1ccc(C2CCN(C(=O)c3ccc(F)cc3)CC2)cc1)C1CN(c2ccc(F)nn2)C1 [Example 823, N-{4-[1-(4-fluorobenzoyl)piperidin-4-yl]phenyl}-1-(6-fluoropyridazin-3-yl)azetidine-3-carboxamide] | 247 nM
29 | N#Cc1ccc(C(=O)N2CCC(c3ccc(NC(=O)C4CN(c5cccnn5)C4)cc3)CC2)cc1 [Example 353, N-{4-[1-(4-cyanobenzoyl)piperidin-4-yl]phenyl}-1-(pyridazin-3-yl)azetidine-3-carboxamide] | 7.15 nM
30 | O=C(Nc1ccc(O[C@@H]2CCN(C(=O)Cc3ccccc3F)C2)cc1)C1CN(c2cccnn2)C1 [Example 501, N-[4-({(3R)-1-[(2-fluorophenyl)acetyl]pyrrolidin-3-yl}oxy)phenyl]-1-(pyridazin-3-yl)azetidine-3-carboxamide] | 6.07 nM
31 | O=C(Nc1ccc(OC2CCN(C(=O)Cc3ccc(C(F)(F)F)cc3)CC2)cc1)C1CN(c2cccnn2)C1 [Example 220, 1-(pyridazin-3-yl)-N-{4-[(1-{[4-(trifluoromethyl)phenyl]acetyl}piperidin-4-yl)oxy]phenyl}azetidine-3-carboxamide] | 13.2 nM
32 | O=C(Nc1ccc(C2CCN(C(=O)c3ccc(OC(F)(F)F)cc3)CC2)cc1)C1CN(c2ccnnc2)C1 [Example 555, 1-(pyridazin-4-yl)-N-(4-{1-[4-(trifluoromethoxy)benzoyl]piperidin-4-yl}phenyl)azetidine-3-carboxamide] | 23.9 nM
33 | CC(=O)N[C@@H](CC(C)C)C(=O)N1CCC(c2ccc(NC(=O)[C@H]3CCN(c4cccnn4)C3)cc2)CC1 [Example 724, (3S)-N-{4-[1-(N-acetyl-L-leucyl)piperidin-4-yl]phenyl}-1-(pyridazin-3-yl)pyrrolidine-3-carboxamide] | 80.9 nM
34 | C=CCCC(=O)N1CCC(c2ccc(NC(=O)[C@H]3CCN(c4cccnn4)C3)cc2)CC1 [Example 700, (3S)-N-{4-[1-(pent-4-enoyl)piperidin-4-yl]phenyl}-1-(pyridazin-3-yl)pyrrolidine-3-carboxamide] | 8.76 nM
